Data taken from US11767282B2, “Composition biologically active to stenoma catenifer and sustained release preparation comprising the same for controlling insect pest” (Shin-Etsu Chemical Co., Ltd., priority 2021, dated 2023).
“Also recorded” adds a separate entry of the source.

Key:
Stenoma catenifer [1] = conditions: Stenoma catenifer males; Millar et al. 2008, Hoddle et al. 2009; cited from earlier work
Stenoma catenifer [2] = assay: field trap evaluation of sustained release preparations (white adhesive trap); type: in vivo; conditions: field traps, versus (9Z)-9,13-tetradecadien-11-ynal (1) alone
Text: A white adhesive trap was used for evaluation of the sustained release preparation. […] An adhesive substance is placed to the upper surface of the bottom plate, and the sustained release preparation A is directly mounted on the adhesive surface for use. In other words, the white adhesive trap has the structure in which only insect pests that come close to the sustained release preparation are captured, and the capture of untargeted insect pests are avoided as much as possible.
In the period of from September 23 and Nov. 25, 2019, the traps containing the respective sustained release preparations were installed in the orchards in which Stenoma catenifer lived. Adult male insect pests captured and killed in each trap were counted every 7 days. The control effect was evaluated by determining the relative value of the number of the insect pests captured by the sustained release preparation of Example 1 when regarding the total number of insect pests captured by the sustained release preparation of later-described Example 2 as 100.

[3] = system: tomato fruit borer (Neoleucinodes elegantalis); conditions: added to sex pheromone main component (11E)-11-hexadecenol; Cabrera, J. Chem. Ecol. 2001; cited from earlier work

Compound | effect on attraction number in field attraction tests (Stenoma catenifer [1]) | further results
CCCCC/C=C\C/C=C\CCCCCCCCCCCCC [(6Z,9Z)-6,9-tricosadiene] | did not affect the attraction number | 
C=CC#C/C=C/CCCCCCCC=O [(9E)-9,13-tetradecadien-11-ynal] |  | number of male adult insect pests captured compared with the comparative attractant (Stenoma catenifer [2]): increase in the total number of the captured insect pests
C=CC#C/C=C\CCCCCCCCO [(9Z)-9,13-tetradecadien-11-yn-1-ol] | reduced the attraction number; also recorded: attraction inhibitor | 
C=CC#C/C=C\CCCCCCCC=O [(9Z)-9,13-tetradecadien-11-ynal] | highest activity among the many attractant compositions; also recorded: attracted Stenoma catenifer | 
CCCC/C=C\CCCCCCCCCCO [(11Z)-11-hexadecenol] |  | effect of addition on attracted number [3]: greatly reduce the attracted number
